Settings: pH 3

With CN1CCCC1c1cccnc1.O=C(O)C(O)C(O)C(=O)O (stereo not shown) [Nicotine Bitartrate, nicotine bitartrate] the “loss of nicotine into the polymeric dosage form materials, comparison of salts” value was “better”.
